Test system: p53 signaling pathway in MT373 tumors
Test: MT373 syngeneic sarcoma model: mouse p53 signaling pathway profiling panel
Assay type: in vivo

## CCn1c(C#CCNc2ccccc2)cc2cc(CNC3CCN(C)CC3)ccc21 [Compound 1, 1-Anilino-3-{1-ethyl-5-[(1-methyl-4-piperidylamino)methyl]-1H-indol-2-yl}-2-propyne]
75 mg/kg BIDx1, 24 h
  Casp2 fold increase or percent reduction vs vehicle control: 16.13 fold or %
  Ccnb1 fold increase or percent reduction vs vehicle control: 65.51 fold or %
  Ccne1 fold increase or percent reduction vs vehicle control: 29.87 fold or %
  Ccng1 fold increase or percent reduction vs vehicle control: 4.63 fold or %
  Ccnh fold increase or percent reduction vs vehicle control: 3.31 fold or %
  Cdc25a fold increase or percent reduction vs vehicle control: 34.15 fold or %
  Cdk1 fold increase or percent reduction vs vehicle control: 59.92 fold or %
  Cdk4 fold increase or percent reduction vs vehicle control: 40.50 fold or %
  Cdkn1a fold increase or percent reduction vs vehicle control: 5.16 fold or %
  Cdkn2a fold increase or percent reduction vs vehicle control: 16.83 fold or %
  Chek1 fold increase or percent reduction vs vehicle control: 52.36 fold or %
  Cradd fold increase or percent reduction vs vehicle control: 5.90 fold or %
  Cul9 fold increase or percent reduction vs vehicle control: 1.58 fold or %
  Dapk1 fold increase or percent reduction vs vehicle control: 1.19 fold or %
  Dnmt1 fold increase or percent reduction vs vehicle control: 17.60 fold or %
  E2f1 fold increase or percent reduction vs vehicle control: 10.67 fold or %
  E2f3 fold increase or percent reduction vs vehicle control: 27.77 fold or %
  Egfr fold increase or percent reduction vs vehicle control: 28.18 fold or %
  Egr1 fold increase or percent reduction vs vehicle control: 64.73 fold or %
  Ep300 fold increase or percent reduction vs vehicle control: 3.09 fold or %
  Ercc1 fold increase or percent reduction vs vehicle control: 18.66 fold or %
  Esr1 fold increase or percent reduction vs vehicle control: 1.26 fold or %
  Fadd fold increase or percent reduction vs vehicle control: 5.60 fold or %
  Fas fold increase or percent reduction vs vehicle control: 1.45 fold or %
  Fasl fold increase or percent reduction vs vehicle control: 10.36 fold or %
  Foxo3 fold increase or percent reduction vs vehicle control: 3.58 fold or %
  Gadd45a fold increase or percent reduction vs vehicle control: 19.41 fold or %
  Hif1a fold increase or percent reduction vs vehicle control: 13.43 fold or %
  Il6 fold increase or percent reduction vs vehicle control: 70.78 fold or %
  Jun fold increase or percent reduction vs vehicle control: 38.98 fold or %
  Kras fold increase or percent reduction vs vehicle control: 13.87 fold or %
  Lig4 fold increase or percent reduction vs vehicle control: 1.17. fold or %
  Mdm2 fold increase or percent reduction vs vehicle control: 2.76 fold or %
  Mdm4 fold increase or percent reduction vs vehicle control: 1.07 fold or %
  Mel1 fold increase or percent reduction vs vehicle control: 15.14 fold or %
  Mlh1 fold increase or percent reduction vs vehicle control: 9.12 fold or %
  Msh2 fold increase or percent reduction vs vehicle control: 29.40 fold or %
  Myod1 fold increase or percent reduction vs vehicle control: 3.54 fold or %
  Nf1 fold increase or percent reduction vs vehicle control: 16.46 fold or %
  Nfkb1 fold increase or percent reduction vs vehicle control: 15.21 fold or %
  Pcna fold increase or percent reduction vs vehicle control: 43.21 fold or %
  Pmaip1 fold increase or percent reduction vs vehicle control: 3.81 fold or %
  Ppm1d fold increase or percent reduction vs vehicle control: 1.26 fold or %
  Prc1 fold increase or percent reduction vs vehicle control: 26.03 fold or %
  Prkca fold increase or percent reduction vs vehicle control: 16.45 fold or %
  Pten fold increase or percent reduction vs vehicle control: 1.18 fold or %
  Pttg1 fold increase or percent reduction vs vehicle control: 1.07 fold or %
  Rb1 fold increase or percent reduction vs vehicle control: 1.14 fold or %
  Rela fold increase or percent reduction vs vehicle control: 32.18 fold or %
  Rprm fold increase or percent reduction vs vehicle control: 1.77 fold or %
  Serpinb5 fold increase or percent reduction vs vehicle control: 1.20 fold or %
  Sesn2 fold increase or percent reduction vs vehicle control: 2.05 fold or %
  Sfn fold increase or percent reduction vs vehicle control: 15.25 fold or %
  Sirt1 fold increase or percent reduction vs vehicle control: 6.13 fold or %
  Stat1 fold increase or percent reduction vs vehicle control: 1.08 fold or %
  Tnf fold increase or percent reduction vs vehicle control: 24.76 fold or %
  Traf1 fold increase or percent reduction vs vehicle control: 1.06 fold or %
  Trp53bp2 fold increase or percent reduction vs vehicle control: 5.61 fold or %
  Trp53 fold increase or percent reduction vs vehicle control: 18.16 fold or %
75 mg/kg BIDx1, 48 h
  Apex1 fold increase or percent reduction vs vehicle control: 21.30 fold or %
  Atm fold increase or percent reduction vs vehicle control: 18.31 fold or %
  Atr fold increase or percent reduction vs vehicle control: 14.07 fold or %
  Bag1 fold increase or percent reduction vs vehicle control: 42.29 fold or %
  Bax fold increase or percent reduction vs vehicle control: 23.39 fold or %
  Bbc3 fold increase or percent reduction vs vehicle control: 1.32 fold or %
  Bid fold increase or percent reduction vs vehicle control: 1.21 fold or %
  Birc5 fold increase or percent reduction vs vehicle control: 50.48 fold or %
  Brca1 fold increase or percent reduction vs vehicle control: 31.46 fold or %
  Brca2 fold increase or percent reduction vs vehicle control: 25.33 fold or %
  Btg2 fold increase or percent reduction vs vehicle control: 11.23 fold or %
  Casp2 fold increase or percent reduction vs vehicle control: 9.89 fold or %
  Ccnb1 fold increase or percent reduction vs vehicle control: 59.73 fold or %
  Ccne1 fold increase or percent reduction vs vehicle control: 5.97 fold or %
  Ccng1 fold increase or percent reduction vs vehicle control: 9.36 fold or %
  Ccnh fold increase or percent reduction vs vehicle control: 12.98 fold or %
  Cdc25a fold increase or percent reduction vs vehicle control: 16.12 fold or %
  Cdk1 fold increase or percent reduction vs vehicle control: 55.02 fold or %
  Cdk4 fold increase or percent reduction vs vehicle control: 48.77 fold or %
  Cdkn1a fold increase or percent reduction vs vehicle control: 1.03 fold or %
  Cdkn2a fold increase or percent reduction vs vehicle control: 23.77 fold or %
  Chek1 fold increase or percent reduction vs vehicle control: 37.45 fold or %
  Cradd fold increase or percent reduction vs vehicle control: 13.67 fold or %
  Cul9 fold increase or percent reduction vs vehicle control: 2.20 fold or %
  Dapk1 fold increase or percent reduction vs vehicle control: 1.46 fold or %

From patent publication US20230049952A1, “METHODS AND COMPOUNDS FOR RESTORING MUTANT P53 FUNCTION” (PMV Pharmaceuticals, Inc., priority 2020, published 2023)
